This is an account of results in patent publication EP4201929A1, “QUINOXALINE THIOREDOXIN REDUCTASE INHIBITORS” (geneXplain GmbH, priority 2021, dated 2023).

One data set deals with HCT116-Cas9. The data set can be described thus: Growth suppression assay (resazurin). In kind it is cell-based. As to conditions: 48 hours of incubation, hydrochloride. Here is the method: (§1) Breast, colon, ovarian, cervical, liver and lung carcinoma cell lines were grown in DMEM supplemented with 10% FBS, and antibiotics were cultured at 37 °C and 5% CO2. […] To obtain an oxygen concentration of 0.05%, the cells were flushed with the premixed gas continuously throughout the experiment.
(§2) Cells were grown in 96-well plates at a density of 3000 cells per well with or without doxycycline and treated with compounds. After 48 hours of incubation the proliferative cell reagent resazurin (Thermo Fisher Scientific) was added to the cells. The degree of resazurin reduction, which reflects cell viability, was measured by microplate reader by monitoring the absorbance at 570 nm and 600 nm, according to the manufacturer.
Background: Alamar Blue is a resazurin reagent that responds to reducing activity.

In another data set the test system is MCF7-Cas9. The data set is described as follows: Growth suppression assay (resazurin). It counts as cell-based. As to conditions: 48 hours of incubation, hydrochloride. As to the method:
as §1, §2

The test system of data set [1] is HCT116 p53-/- and A375p53-/- cells. The data set is described as follows: Growth suppression in wild type p53 versus p53-negative isogenic cells. As to conditions: HCT116 vs HCT116 p53-/-; A375 vs A375p53-/-. In kind it is cell-based. Here is the method: as §2
Since p53 is a major inducer of apoptosis, including ROS-induced apoptosis, we tested whether p53 plays a role in growth suppression by 1d*HCl. We used wild type p53 HCT116 cells and their isogenic p53-negative cell line HCT116 p53-/-, as well as a pair of wild type p53 A375 and p53-negative A375p53-/- melanoma cells, generated using CRISPR-Cas9, as described previously [Zhou X, Singh M, Sanz Santos G, Guerlavais V, Carvajal LA, Aivado M, Zhan Y, Oliveira MMS, Westerberg LS, Annis DA, Johnsen JI, Selivanova G. Pharmacologic activation of p53 triggers viral mimicry response thereby abolishing tumor immune evasion and promoting anti-tumor immunity Cancer Discov. ([…]), 11(12), 3090-3105]. […] This allowed us to conclude that the tumor suppression is p53 -independent. […]

Data set [2] concerns the target T1, GR (Homo sapiens, UniProt P00390). The data set can be described thus: GR activity in cells. It counts as cell-based. The source says:
Having established that 1d*HCl inhibits TrxR1activity in vitro, it was important to confirm that 1d*HCl targets TrxRl in living cells. Therefore, we tested whether 1d*HCl is able to inhibit the enzymatic activity of TrxRl in MCF7 breast cancer cells. […] In contrast, GR activity was not inhibited by 1d*HCl in cells, which is in line with the in vitro results. Thus, we conclude that 1d*HCl selectively targets TrxRl in cancer cells and inhibits its activity, leading to the induction of ROS and oxidative stress.

A further data set has as its system γH2AX. The data set can be described thus: DNA damage detection by Western blot (phosphorylated histone H2AX). It counts as cell-based. As to conditions: HCT116 and MCF7. Here is the method:
(§3) The extraction of total cell lysates and western blot were performed according to standard procedure. The antibodies used for immunoblotting were: p53 (sc-126, Santa Cruz Biotechnology), γH2AX (#07-164, Millipore), TrxRl 19A1 (AbFrontier). Anti-β-actin monoclonal antibody (Millipore) was used as loading control. The horseradish peroxidase-coupled secondary antibodies (Jackson ImmunoResearch) and SuperSignal™ West Dura Extended Duration Substrate detection system (Thermo Fischer Scientific), and images were visualized using ChemiDoc Imaging System (Bio-Rad).
(§4) The majority of chemotherapeutic drugs used currently in the clinic, are DNA damaging drugs. Induction of DNA damage is a very efficient way of elimination of cancer cells. Unfortunately, these drugs induce DNA damage also in normal cells, leading to severe side effects. We addressed the question whether 1d*HCl induces DNA damage. We tested this by detection of a hallmark of DNA damage, induction of phosphorylated histone H2AX, so called γH2AX. We used anti-yH2AX antibody to detect it in cells treated with 1d*HCl.

For a further data set, the system named is p53. The data set can be described thus: p53 induction by Western blot. It counts as cell-based. To be noted: sign of DNA damage. Here is the method: as §3, §4
(In general: Immunoblotting shows a protein as a band on a membrane.)

The target in data set [3] is T1, GR. The data set is described as follows: GR enzymatic activity measurement in vitro. It counts as biochemical. Also on record: purchased Sigma. To be noted: recombinant purified enzyme in vitro. As to the method:
TrxRl enzyme was recombinantly produced with high Sec contents in a specific Release Factor 1-depleted E. coli strain and purified as previously described (Arnér ESJ, Holmgren A, in Current Protocols in Toxicology, Maines M, Costa L, Reed D, Sassa S, Eds. (John Wiley & Sons, Inc., New York, 2000), pp. 7.4.1-7.4.14). TrxRl and GSR (Sigma) recombinant enzyme assays were performed in a reaction buffer containing 50 mM Tris pH 7.5 with 2 mM EDTA and 0.1 mg/mL bovine serum albumin as described previously (Arnér ESJ, Holmgren A, in Current Protocols in Toxicology, Maines M, Costa L, Reed D, Sassa S, Eds. (John Wiley & Sons, Inc., New York, 2000), pp. 7.4.1-7.4.14). Briefly, assays were performed in triplicate using 96-well plates, with activity inferred from absorbance changes using a Spectra Max plate reader. Results of recombinant enzyme assays were normalized to DMSO and to no enzyme controls.
Glutathione reductase inhibition assay was performed according to (S. Busker, W. Qian, M. Haraldsson, B. Espinosa, L. Johansson, S. Attarha, I. Kolosenko, J. Liu, M. Dagnell, D. Grandér, E.S.J. Arnér, K. PokrovskajaTamm, B.D.G. Page. Irreversible TrxRl inhibitors block STAT3 activity and induce cancer cell death, Sci. Adv., 6 (2020), 10.1126/sciadv.aax7945). 5 or 10 µM compound was incubated with 175 µM GSH in TE buffer. […]

T1 sequence (P00390 44-522): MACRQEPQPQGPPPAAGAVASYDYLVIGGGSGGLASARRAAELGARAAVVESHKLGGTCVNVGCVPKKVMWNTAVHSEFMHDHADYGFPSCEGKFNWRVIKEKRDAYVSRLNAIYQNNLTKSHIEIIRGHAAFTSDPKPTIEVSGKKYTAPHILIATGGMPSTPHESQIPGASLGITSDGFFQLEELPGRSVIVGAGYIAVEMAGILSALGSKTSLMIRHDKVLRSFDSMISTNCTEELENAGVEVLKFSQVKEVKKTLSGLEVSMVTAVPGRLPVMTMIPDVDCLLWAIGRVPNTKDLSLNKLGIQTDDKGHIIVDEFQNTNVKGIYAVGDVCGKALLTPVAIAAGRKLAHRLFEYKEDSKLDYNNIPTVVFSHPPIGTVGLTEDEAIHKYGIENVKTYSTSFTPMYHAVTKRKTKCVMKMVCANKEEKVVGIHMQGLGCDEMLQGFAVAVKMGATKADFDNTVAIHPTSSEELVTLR

With `Cl.N#Cc1c(-c2cccnc2)[n+]([O-])c2cc(F)c(N3CCOCC3)cc2[n+]1[O-]` [1d*HCl, 6-Fluoro-7-(morpholin-4-yl)-3-(pyridin-3-yl)quinoxaline-2-carbonitrile-1,4-dioxide hydrochloride], the IC50 amounted to 690 nM in the data set on HCT116-Cas9 and 1600 nM with MCF7-Cas9. The “growth suppression in the absence of p53” value in data set [1] is listed as “not affected in the absence of p53”. Besides, the “GR activity in cells” value on GR [2] is “not inhibited”. Also, the “induction of γH2AX” value in the data set on γH2AX is on record as “negligible”. The “induction of p53” value with p53 was “did not detect a significant induction of p53”. Also, the GR activity entry at GR [3] is given as “did not inhibit GR activity”.

As usually defined, the IC50 is the concentration that gives 50% inhibition. Read a high IC50 as weaker potency.
